Columns and labels:
Test in all cases: pIC50, kinobeads binding competition
Conditions in all cases: cell material: Jurkat lysate
TEC = target: T1, TEC (UniProt P42680)
T1 sequence (whole entry): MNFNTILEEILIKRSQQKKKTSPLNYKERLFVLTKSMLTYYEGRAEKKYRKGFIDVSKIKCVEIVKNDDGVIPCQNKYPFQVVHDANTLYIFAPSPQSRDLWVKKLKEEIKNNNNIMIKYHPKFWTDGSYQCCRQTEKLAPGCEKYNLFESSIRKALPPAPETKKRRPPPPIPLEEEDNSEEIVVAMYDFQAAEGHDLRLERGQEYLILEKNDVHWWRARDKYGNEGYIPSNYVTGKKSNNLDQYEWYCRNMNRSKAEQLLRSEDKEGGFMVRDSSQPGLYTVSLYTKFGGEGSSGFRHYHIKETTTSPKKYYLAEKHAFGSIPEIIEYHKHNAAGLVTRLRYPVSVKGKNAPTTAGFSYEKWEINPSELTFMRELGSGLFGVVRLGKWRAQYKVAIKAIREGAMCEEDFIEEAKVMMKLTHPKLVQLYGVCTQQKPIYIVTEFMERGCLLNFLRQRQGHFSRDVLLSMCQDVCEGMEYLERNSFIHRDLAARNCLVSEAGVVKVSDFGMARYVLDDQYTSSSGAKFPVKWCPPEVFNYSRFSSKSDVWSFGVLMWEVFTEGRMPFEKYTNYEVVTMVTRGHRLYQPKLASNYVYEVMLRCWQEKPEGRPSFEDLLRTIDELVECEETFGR

MAST1 = MAST1 (UniProt Q9Y2H9)
MAST1, sequence (Q9Y2H9 whole entry, looked up): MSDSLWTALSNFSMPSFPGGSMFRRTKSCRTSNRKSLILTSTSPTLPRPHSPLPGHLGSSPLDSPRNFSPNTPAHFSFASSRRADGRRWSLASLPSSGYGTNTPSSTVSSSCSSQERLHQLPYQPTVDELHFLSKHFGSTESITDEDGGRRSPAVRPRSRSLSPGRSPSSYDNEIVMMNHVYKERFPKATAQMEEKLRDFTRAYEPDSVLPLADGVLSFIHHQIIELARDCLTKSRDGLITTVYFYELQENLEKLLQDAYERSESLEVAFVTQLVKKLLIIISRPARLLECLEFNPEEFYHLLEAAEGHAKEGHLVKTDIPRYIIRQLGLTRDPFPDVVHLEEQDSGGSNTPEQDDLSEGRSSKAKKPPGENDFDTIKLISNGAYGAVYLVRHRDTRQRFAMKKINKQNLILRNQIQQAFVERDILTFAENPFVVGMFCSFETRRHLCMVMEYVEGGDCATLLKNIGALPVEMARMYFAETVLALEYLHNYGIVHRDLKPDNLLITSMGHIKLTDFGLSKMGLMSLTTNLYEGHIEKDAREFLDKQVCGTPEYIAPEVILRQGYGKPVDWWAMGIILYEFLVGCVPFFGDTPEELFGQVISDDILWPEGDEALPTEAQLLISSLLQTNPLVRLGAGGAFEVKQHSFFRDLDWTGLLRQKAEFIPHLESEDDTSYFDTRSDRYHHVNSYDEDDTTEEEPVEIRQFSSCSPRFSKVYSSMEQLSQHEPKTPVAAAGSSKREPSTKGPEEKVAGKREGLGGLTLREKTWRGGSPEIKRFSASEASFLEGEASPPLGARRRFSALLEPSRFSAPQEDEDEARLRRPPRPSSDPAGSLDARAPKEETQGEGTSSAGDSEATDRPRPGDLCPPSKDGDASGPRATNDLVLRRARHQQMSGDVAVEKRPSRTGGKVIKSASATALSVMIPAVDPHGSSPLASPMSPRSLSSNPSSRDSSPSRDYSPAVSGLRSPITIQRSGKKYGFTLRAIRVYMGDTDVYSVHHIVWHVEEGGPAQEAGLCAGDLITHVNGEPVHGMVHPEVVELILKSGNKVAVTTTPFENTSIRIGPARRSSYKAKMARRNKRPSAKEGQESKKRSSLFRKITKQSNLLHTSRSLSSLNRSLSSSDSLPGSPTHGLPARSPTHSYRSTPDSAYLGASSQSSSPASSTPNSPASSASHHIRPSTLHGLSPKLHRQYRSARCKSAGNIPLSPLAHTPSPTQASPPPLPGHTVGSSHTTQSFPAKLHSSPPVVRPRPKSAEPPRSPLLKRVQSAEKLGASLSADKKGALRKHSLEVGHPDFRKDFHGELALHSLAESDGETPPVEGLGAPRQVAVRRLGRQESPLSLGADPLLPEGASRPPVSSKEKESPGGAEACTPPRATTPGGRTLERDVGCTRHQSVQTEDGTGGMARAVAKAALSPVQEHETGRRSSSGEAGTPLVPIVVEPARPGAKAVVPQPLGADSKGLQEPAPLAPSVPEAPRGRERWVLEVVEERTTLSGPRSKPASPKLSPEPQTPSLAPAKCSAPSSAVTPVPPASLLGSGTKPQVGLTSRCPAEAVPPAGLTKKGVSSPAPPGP

EPHA3 = target: T2, EPHA3 (UniProt P29320)
T2 sequence (whole entry): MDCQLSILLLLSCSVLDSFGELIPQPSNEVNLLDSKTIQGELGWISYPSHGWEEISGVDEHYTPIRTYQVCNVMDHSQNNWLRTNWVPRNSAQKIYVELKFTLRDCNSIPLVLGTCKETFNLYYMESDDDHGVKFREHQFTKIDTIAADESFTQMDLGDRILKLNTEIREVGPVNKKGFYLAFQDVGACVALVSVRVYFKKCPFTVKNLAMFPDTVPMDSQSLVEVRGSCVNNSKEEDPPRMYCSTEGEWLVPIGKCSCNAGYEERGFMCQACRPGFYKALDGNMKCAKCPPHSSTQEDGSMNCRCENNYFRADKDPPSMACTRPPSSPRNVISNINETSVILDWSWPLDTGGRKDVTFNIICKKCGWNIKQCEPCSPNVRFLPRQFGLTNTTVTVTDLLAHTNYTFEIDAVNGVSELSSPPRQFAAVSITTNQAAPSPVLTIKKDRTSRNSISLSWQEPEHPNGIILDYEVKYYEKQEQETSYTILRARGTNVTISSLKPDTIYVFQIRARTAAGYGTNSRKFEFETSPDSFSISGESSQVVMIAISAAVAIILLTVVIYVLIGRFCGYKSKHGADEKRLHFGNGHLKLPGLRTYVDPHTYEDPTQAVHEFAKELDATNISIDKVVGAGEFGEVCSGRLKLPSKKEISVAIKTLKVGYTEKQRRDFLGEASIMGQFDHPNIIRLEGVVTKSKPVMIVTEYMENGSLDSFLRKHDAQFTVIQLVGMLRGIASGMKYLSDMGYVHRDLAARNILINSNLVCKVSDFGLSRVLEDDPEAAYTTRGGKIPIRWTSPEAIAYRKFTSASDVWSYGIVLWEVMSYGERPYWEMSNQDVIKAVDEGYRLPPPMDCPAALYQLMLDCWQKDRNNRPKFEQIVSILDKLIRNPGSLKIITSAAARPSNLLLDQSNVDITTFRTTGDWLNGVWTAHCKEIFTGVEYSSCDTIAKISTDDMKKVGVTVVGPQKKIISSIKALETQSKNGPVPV

SRPK1 = SRPK1 (UniProt Q96SB4)
SRPK1, sequence (Q96SB4 whole entry): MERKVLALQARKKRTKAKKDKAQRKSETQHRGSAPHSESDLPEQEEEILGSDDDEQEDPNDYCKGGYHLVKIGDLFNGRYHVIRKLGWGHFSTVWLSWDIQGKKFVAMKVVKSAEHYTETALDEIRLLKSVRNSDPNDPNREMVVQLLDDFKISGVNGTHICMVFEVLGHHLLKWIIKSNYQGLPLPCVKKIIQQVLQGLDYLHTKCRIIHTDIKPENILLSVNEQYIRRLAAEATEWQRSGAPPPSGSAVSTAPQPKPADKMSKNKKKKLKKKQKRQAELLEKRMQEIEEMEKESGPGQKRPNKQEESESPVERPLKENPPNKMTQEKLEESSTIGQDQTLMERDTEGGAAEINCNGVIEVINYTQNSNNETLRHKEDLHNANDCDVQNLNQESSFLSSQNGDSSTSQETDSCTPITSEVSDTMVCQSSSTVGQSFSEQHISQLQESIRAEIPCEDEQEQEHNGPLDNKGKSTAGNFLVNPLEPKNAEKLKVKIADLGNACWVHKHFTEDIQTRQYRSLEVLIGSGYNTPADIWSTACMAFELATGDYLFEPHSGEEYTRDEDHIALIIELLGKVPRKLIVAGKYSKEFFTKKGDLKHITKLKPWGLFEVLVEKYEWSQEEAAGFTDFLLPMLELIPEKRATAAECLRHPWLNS

PAK2 = PAK2 (UniProt Q13177)
PAK2, sequence (Q13177 whole entry): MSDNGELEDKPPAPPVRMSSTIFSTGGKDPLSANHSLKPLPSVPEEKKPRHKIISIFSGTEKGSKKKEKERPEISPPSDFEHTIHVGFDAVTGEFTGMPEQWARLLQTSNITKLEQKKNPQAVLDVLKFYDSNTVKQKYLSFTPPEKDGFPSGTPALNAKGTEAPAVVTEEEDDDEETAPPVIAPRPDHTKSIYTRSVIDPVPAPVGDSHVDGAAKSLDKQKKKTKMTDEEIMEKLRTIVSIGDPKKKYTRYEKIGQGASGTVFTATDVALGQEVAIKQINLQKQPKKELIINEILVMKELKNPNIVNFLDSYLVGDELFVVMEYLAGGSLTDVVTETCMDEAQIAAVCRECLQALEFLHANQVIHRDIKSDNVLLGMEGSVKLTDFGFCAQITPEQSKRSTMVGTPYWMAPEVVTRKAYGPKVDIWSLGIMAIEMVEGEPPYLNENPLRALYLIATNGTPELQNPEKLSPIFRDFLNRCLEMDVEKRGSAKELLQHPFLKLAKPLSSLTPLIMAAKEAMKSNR

ITK = target: T3, ITK (UniProt Q08881)
T3 sequence (whole entry): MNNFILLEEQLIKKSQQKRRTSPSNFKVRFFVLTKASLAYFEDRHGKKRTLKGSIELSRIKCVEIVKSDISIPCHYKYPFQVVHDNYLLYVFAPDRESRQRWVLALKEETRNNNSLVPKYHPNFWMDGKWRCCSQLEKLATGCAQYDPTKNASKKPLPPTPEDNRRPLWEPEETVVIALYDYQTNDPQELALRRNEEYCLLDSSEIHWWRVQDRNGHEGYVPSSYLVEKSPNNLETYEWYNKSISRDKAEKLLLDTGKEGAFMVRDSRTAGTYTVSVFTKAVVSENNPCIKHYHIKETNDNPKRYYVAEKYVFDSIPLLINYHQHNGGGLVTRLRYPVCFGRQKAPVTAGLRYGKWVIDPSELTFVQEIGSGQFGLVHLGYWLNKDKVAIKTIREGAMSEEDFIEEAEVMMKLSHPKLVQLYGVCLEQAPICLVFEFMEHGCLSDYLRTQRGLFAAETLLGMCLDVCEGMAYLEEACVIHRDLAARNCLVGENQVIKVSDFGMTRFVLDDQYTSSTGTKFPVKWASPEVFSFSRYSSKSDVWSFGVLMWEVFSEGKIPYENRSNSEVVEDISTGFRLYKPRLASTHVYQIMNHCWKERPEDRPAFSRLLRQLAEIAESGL

pIC50 (TEC): < 4.52
pIC50 (MAST1): < 4.52
pIC50 (EPHA3): < 4.52
pIC50 (SRPK1): < 4.52
pIC50 (PAK2): < 4.52
pIC50 (ITK): < 4.52
Compound: CCc1cnn2c(NCc3ccc[n+]([O-])c3)cc(N3CCCC[C@H]3CCO)nc12 [dinaciclib]
